This is an account of results in ChEMBL document CHEMBL1201862, “PubChem BioAssay data set” (2004).

Where a name gives a salt, the structure may show the parent alone.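 Compound exposure: 48 hours, 5 concentrations, 96-well plates. At the GI50, growth is halved.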 Activity calls are given as the source filed them. Rule as the data show it: active = GI50 up to about 1.1 µM and inactive = higher.

Among the test systems are UO-31; TK-10; NCI-H23; UACC-257; MOLT-4; HOP-62; Hs-578T; SN12C; RXF 393; HCT-15; Malme-3M; MCF7; SW-620; HOP-92; PC-3; LOX IMVI; OVCAR-3; RPMI-8226.
Assay in all cases: NCI-60 cell line screen, 48 h

With `c1ccc2c3c(c(N4CCOCC4)nc2c1)CCCC3`, the GI50 with UO-31 was 41.2 µM (inactive); in the test with TK-10 it was 63.4 µM (inactive); in the test with NCI-H23 it was 56.5 µM (inactive); in the test on UACC-257, 40.8 µM (inactive); in the test with MOLT-4, 30 µM (inactive); in the test on HOP-62 it was 92.5 µM (inactive). Also, the GI50 with Hs-578T is 76.6 µM (inactive); with SN12C, 34.2 µM (inactive); with RXF 393, 19.8 µM (inactive); in the test on HCT-15, 35.3 µM; with Malme-3M it was 75.2 µM (inactive); in the test on MCF7, 29.5 µM (inactive). For the same compound, the GI50 in the test on SW-620 is 43.8 µM (inactive); with HOP-92, 67.1 µM (inactive); in the test with PC-3, 36.6 µM (inactive); in the test with LOX IMVI, 39.9 µM (inactive); in the test on OVCAR-3, 36.6 µM (inactive).

As to `O=C(O)CC[N+]1=CCC(c2ccccc2)(c2ccccc2)O1`, the GI50 in the test on UO-31, in the test with TK-10, in the test with NCI-H23, in the test with UACC-257, in the test with MOLT-4 and in the test with HOP-62 was > 100 µM (inactive) in each case. The GI50 in the test on Hs-578T was > 100 µM (inactive); in the test with SN12C, > 100 µM (inactive); in the test with RXF 393, > 100 µM (inactive); with HCT-15 it was more than 100 µM; in the test on MCF7, > 100 µM (inactive); with SW-620 it was > 100 µM (inactive). Moreover, the GI50 in the test with HOP-92, in the test on PC-3 and in the test on OVCAR-3 was > 100 µM (inactive) each time.

For the compound `O=C(O[C@H]1[C@@H](O)[C@H](n2cnc3c(Cl)ncnc32)O[C@@H]1COC(c1ccccc1)(c1ccccc1)c1ccccc1)c1ccccc1`, the GI50 is 1.27 µM (inactive) with UO-31; 45.2 µM (inactive) with TK-10; 20.4 µM (inactive) in the test with NCI-H23; 14.7 µM (inactive) in the test on UACC-257; 3.04 µM (inactive) in the test with MOLT-4; 16.7 µM (inactive) in the test with HOP-62. In addition, the GI50 with Hs-578T is 2.9 µM (inactive); in the test on SN12C, 11.9 µM (inactive); in the test on RXF 393, 16.6 µM (inactive); with HCT-15 it was 17.4 µM; in the test on MCF7, 4.91 µM (inactive); in the test with SW-620, 54.5 µM (inactive). The GI50 is 15.8 µM (inactive) in the test on HOP-92; 11 µM (inactive) with PC-3; 4.91 µM (inactive) with LOX IMVI; 14.2 µM (inactive) with OVCAR-3; 2.25 µM (inactive) with RPMI-8226.

Regarding `CCOC(=O)c1ccc2c(c1)nc1n2C(c2c(F)cccc2F)SC1` (stereo not given), the GI50 with UO-31 is 29.2 µM (inactive); in the test with TK-10, 80.9 µM (inactive); in the test with NCI-H23, 17.6 µM (inactive); with UACC-257, 38 µM (inactive); in the test with MOLT-4, 26.8 µM (inactive); with HOP-62, 31.9 µM (inactive). The GI50 was 26.2 µM (inactive) with Hs-578T; 56.4 µM (inactive) with SN12C; 51.6 µM (inactive) with RXF 393; 23.3 µM in the test on HCT-15; 19.9 µM (inactive) in the test with MCF7; 54.6 µM (inactive) in the test with SW-620. Further, the GI50 with HOP-92 is 40.6 µM (inactive); in the test with PC-3, 21.3 µM (inactive); in the test with LOX IMVI, 21.1 µM (inactive); in the test with OVCAR-3 it was 17.8 µM (inactive); with RPMI-8226, 21.8 µM (inactive).

As to `C/C(=N\N=C(/S)SCc1ccccc1)c1ccccn1`, the GI50 with UO-31 is 0.0183 µM (active); in the test with TK-10 it was 0.339 µM (active); with NCI-H23, < 0.01 µM (active); in the test on UACC-257 it was < 0.01 µM (active); in the test on MOLT-4 it was < 0.01 µM (active); with HOP-62, < 0.01 µM (active). In addition, the GI50 was 2.62 µM (inactive) in the test with Hs-578T; < 0.0269 µM (active) in the test with SN12C; 1.28 µM (inactive) with RXF 393; less than 0.01 µM with HCT-15; 0.665 µM (active) in the test on Malme-3M; < 0.01 µM (active) in the test on MCF7. Also, the GI50 is < 0.01 µM (active) with SW-620; < 0.0105 µM (active) with HOP-92; < 0.01 µM (active) in the test on PC-3; < 0.01 µM (active) in the test with OVCAR-3; < 0.01 µM (active) in the test on RPMI-8226.

Take `O=C(CNc1ccc(Cl)cc1Cl)NC1C=Cc2ccc(S(=O)(=O)Nc3ccc(Cl)cc3Cl)cc2C1=O` (stereo not given): the GI50 is 54.2 µM (inactive) in the test on UO-31; > 100 µM (inactive) with TK-10; > 100 µM (inactive) with NCI-H23; > 100 µM (inactive) in the test with UACC-257; > 100 µM (inactive) in the test on MOLT-4; > 100 µM (inactive) with HOP-62. Moreover, the GI50 in the test on Hs-578T was > 100 µM (inactive); with SN12C it was > 100 µM (inactive); in the test with HCT-15, more than 100 µM; with Malme-3M, > 100 µM (inactive); with MCF7, > 100 µM (inactive); in the test with SW-620, > 100 µM (inactive). Besides, the GI50 was > 100 µM (inactive) in the test on HOP-92; > 100 µM (inactive) in the test on PC-3; > 100 µM (inactive) in the test with LOX IMVI; > 100 µM (inactive) with OVCAR-3; 11 µM (inactive) in the test on RPMI-8226.

Turning to `COC(=O)[C@@]1(C)CCC[C@]2(C(=O)O)C3Cc4occc4[C@H](C)[C@@H]3CCC21` (stereo not given in full), the GI50 in the test with UO-31 was 42.7 µM (inactive); in the test with TK-10, 41 µM (inactive); in the test with NCI-H23, > 100 µM (inactive); in the test with MOLT-4, 29.2 µM (inactive); in the test on HOP-62, 34 µM (inactive); in the test on Hs-578T it was 29.4 µM (inactive). The GI50 was 28.9 µM (inactive) with SN12C; 51.1 µM (inactive) with RXF 393; more than 10 µM in the test on HCT-15; 34.5 µM (inactive) with Malme-3M; > 10 µM (inactive) with MCF7; 36 µM (inactive) in the test on SW-620. Also, the figures for the GI50 with HOP-92, in the test with PC-3 and in the test with OVCAR-3 were 29.4 µM (inactive), 23.7 µM (inactive) and > 100 µM (inactive), respectively.

With `CCN(CC)CCOCCn1c2c(c3ccccc31)CCCC2`, the GI50 was 14.5 µM (inactive) with UO-31; 19.1 µM (inactive) in the test on TK-10; 35.8 µM (inactive) in the test on NCI-H23; 21.9 µM (inactive) with UACC-257; 15.8 µM (inactive) with MOLT-4; 17.2 µM (inactive) with HOP-62. Moreover, the GI50 was 20 µM (inactive) with Hs-578T; 18.3 µM (inactive) with SN12C; 16.3 µM with HCT-15; 15.6 µM (inactive) in the test on Malme-3M; 18.2 µM (inactive) in the test on MCF7; 17.1 µM (inactive) in the test on SW-620. For the same compound, the GI50 with HOP-92 was 20.9 µM (inactive); in the test with PC-3 it was 17.8 µM (inactive); with LOX IMVI, 19.5 µM (inactive); in the test with OVCAR-3, 35.5 µM (inactive); with RPMI-8226 it was 20.4 µM (inactive).

Consider `O=Cc1ccc2ccocc1-2`, for which the GI50 in the test with UO-31, in the test with TK-10, in the test on NCI-H23, in the test on UACC-257, with MOLT-4 and with HOP-62 was > 100 µM (inactive) each time. In addition, the GI50 in the test with Hs-578T was > 100 µM (inactive); in the test with SN12C, > 100 µM (inactive); in the test on RXF 393 it was > 100 µM (inactive); in the test with HCT-15 it was more than 100 µM; in the test with MCF7, > 100 µM (inactive); in the test with SW-620, > 100 µM (inactive). For the same compound, the GI50 with HOP-92, with PC-3, in the test with LOX IMVI, with OVCAR-3 and in the test on RPMI-8226 was > 100 µM (inactive) in each case.

On to `COc1ccc(NC(=O)CC(=O)N2N=C(C)C(/N=N/c3ccc(C(=O)O)cc3)C2=O)cc1` (stereo not given), for which the GI50 in the test on UO-31, with TK-10, in the test on NCI-H23, with UACC-257, in the test on HOP-62 and in the test with Hs-578T was > 100 µM (inactive) in each case. For the same compound, the GI50 in the test with SN12C was > 100 µM (inactive); in the test with RXF 393 it was > 100 µM (inactive); with HCT-15 it was more than 100 µM; with Malme-3M it was > 100 µM (inactive); with MCF7, > 100 µM (inactive); with SW-620, > 100 µM (inactive). For the same compound, the GI50 is > 100 µM (inactive) in the test on HOP-92; > 100 µM (inactive) with PC-3; 94 µM (inactive) in the test with LOX IMVI; > 100 µM (inactive) in the test on OVCAR-3; > 10 µM (inactive) in the test on RPMI-8226.

Regarding `C/C(=N\NC(=S)N1CCN(C)CC1)c1nc2cccnc2[nH]1`, the GI50 was 32 µM (inactive) with UO-31; 54.7 µM (inactive) in the test with TK-10; > 100 µM (inactive) in the test on NCI-H23; > 100 µM (inactive) in the test with UACC-257; > 100 µM (inactive) with MOLT-4; > 100 µM (inactive) in the test on HOP-62. Moreover, the GI50 in the test with Hs-578T was > 100 µM (inactive); in the test with SN12C, > 100 µM (inactive); in the test on HCT-15 it was more than 100 µM; in the test with Malme-3M, > 100 µM (inactive); in the test with MCF7, 20.4 µM (inactive); in the test with SW-620, > 100 µM (inactive). Besides, the GI50 with HOP-92, in the test with PC-3, with LOX IMVI, in the test with OVCAR-3 and in the test on RPMI-8226 was > 100 µM (inactive) throughout.

Regarding `N=C(N)c1ccc(-c2ccc(-c3ccc(C(=N)N)cc3)o2)cc1` [FURAMIDINE HYDROCHLORIDE], the GI50 in the test with UO-31 is 15.8 µM (inactive); in the test on TK-10, 24.9 µM (inactive); in the test on NCI-H23 it was 22 µM (inactive); with UACC-257, 27.9 µM (inactive); with MOLT-4, 27.4 µM (inactive); in the test with HOP-62, 29 µM (inactive). Also, the GI50 in the test with Hs-578T is 21.4 µM (inactive); with SN12C it was 12.6 µM (inactive); in the test with RXF 393 it was 32 µM (inactive); with HCT-15 it was 40.9 µM; in the test with Malme-3M it was 18.6 µM (inactive); with MCF7, 17.5 µM (inactive). For the same compound, the GI50 is 28.5 µM (inactive) in the test on SW-620; 62.4 µM (inactive) with HOP-92; 39.5 µM (inactive) in the test on PC-3; > 100 µM (inactive) with OVCAR-3; 18.6 µM (inactive) in the test with RPMI-8226.
